The values that follow come from patent publication US10316079B2, “Monoclonal antibody against muramyl peptides” (priority 2012, dated 2019).

The subject of assay [1] is binding of 2E7 to N-acetylmuramyl-L-alanyl-D-isoglutamine conjugated to OVA. The experiment in a line: Competitive ELISA for antigen specificity of 2E7. Further details: species or system mouse. The note with it: concentration dependent, compared with N-acetylmuramyl-L-alanyl-D-isoglutamine. From the text:
To enhance the antigenicity of the MDPs, these molecules were conjugated to the human serum albumin (HSA) using a linker molecule. The carboxylic acid moiety of MDPs was first coupled to N-Boc-ethylenediamine, and then the Boc protection group was removed and the resulting amine was linked to HSA with glutaraldehyde. […] The MDP-HSA conjugates were then used to immunize BALB/c mice. Serum antigen-specific titers of the immunized mice were examined by enzyme-linked immunosorbent assay (ELISA) against MDPs conjugated to ovalbumin (OVA) using the same linkage strategy as described above. Generation of hybridoma cell lines, screening of antibody-producing clones, preparation and purification of mAbs, and mAb isotyping were carried out by following standard protocols. Antigen specificity of a mAb was determined using competitive ELISA to test the ability of different MDPs and constituent moieties to inhibit the binding of a mAb to the MDP originally used as antigen for immunization.
(In general: In an ELISA, binding on a coated surface is turned into a signal by an enzyme label.)

The subject of assay [2] is bacteria of the mouse microbiota. The assay can be described thus: Blood MP level in mice fed amoxicillin, competitive ELISA using 2E7. Format: in vivo. The note with it: amoxicillin 100 mg/kg fed at 12-h intervals, 4 h after each feeding. As to the method:
Amoxicillin was administered orally to 50 mice at 12-h intervals and three mice were sacrificed every 4 h to collect blood for peptidoglycan quantification by ELISA. […] Serial blood samples were taken. Time for blood draw and IV injection are indicated.
The MP level in serum was determined by competitive ELISA using an example of the antibody of the present disclosure, i.e. 2E7.

In another assay the test system is Staphylococcus aureus. The experiment in a line: MPs released into culture supernatant with amoxicillin, competitive ELISA using 2E7. It is filed as cell-based. The settings on record: 40 μg per ml amoxicillin added at OD600=1.5; vs untreated culture. As to the method: (§1) Power Fit equation y=a*(x−b)^c using CurveExpert Basic. The standard curve was used to determine the peptidoglycan to concentration in a sample. […] Both bacteria were grown to OD600=1.5. Each culture was divided into two, and one treated with 40 μg/ml amoxicillin (Atex) and the other untreated. Aliquots were collected at the indicated times and the amount of MPs in the supernatant was determined by competitive ELISA. […] After removing unbound antibodies by PBS washes, the cells were incubated with a FITC-labeled anti-mouse IgG Ab before fluorescence microscopic examination.
(§2) For this test, Gram-positive bacterium Staphylococcus aureus, which has a thick peptidoglycan layer, and […] Escherichia coli, which has a thin peptidoglycan layer, were selected and grown in the presence or absence of amoxicillin. The culture was grown to a density of OD600=1.5 and then divided into two equal aliquots. To one aliquot, amoxicillin was added to a final concentration of 40 μg per ml, and to the other aliquot, no drug was added. Both cultures were allowed to continue to grow. Aliquots of cultures were collected at timed intervals and cells were removed by centrifugation. The amount of MPs in the supernatant was determined by competitive ELISA using 2E7.

The test system of a further assay is Escherichia coli. The description is as above. The settings on record: 40 μg per ml amoxicillin added at OD600=1.5; vs untreated culture. It is filed as cell-based. Here is the method: as §1, §2

`CC(=O)N[C@H]1C(O)O[C@H](CO)[C@@H](O)[C@@H]1O[C@H](C)C(=O)N[C@H](C)C(=O)N[C@H](CCC(=O)O)C(=O)O` (stereo partly drawn) [N-acetylmuramyl-L-alanyl-D-glutamate]: the “inhibition of 2E7 binding to N-acetylmuramyl-L-alanyl-D-isoglutamine conjugated to OVA” value (“inhibition of 2E7 binding” below) in assay [1] is “almost as effectively as N-acetylmuramyl-L-alanyl-D-isoglutamine”.

In the case of `CC1(C)S[C@@H]2[C@H](NC(=O)[C@H](N)c3ccc(O)cc3)C(=O)N2[C@H]1C(=O)O` [amoxicillin], the “increase in the blood MP level” value in assay [2] is 20-60%. In addition, the “molecules in culture medium that inhibit 2E7 binding to N-acetylmuramyl-L-alanyl-D-isoglutamine (MPs)” value in the assay on Staphylococcus aureus and in the assay with Escherichia coli was “sharp increase” each time.

Regarding `CC(NC(=O)C(C)OC1C(N)C(O)OC(CO)C1O)C(=O)NC(CCC(=O)O)C(=O)O` [muramyl-L-alanyl-D-glutamate], the “inhibition of 2E7 binding” value in assay [1] is on record as “almost as effectively as N-acetylmuramyl-L-alanyl-D-isoglutamine”.

Regarding muramyl-L-alanyl-D-isoglutamine, in assay [1], the “inhibition of 2E7 binding” value is listed as “almost as effectively as N-acetylmuramyl-L-alanyl-D-isoglutamine”.
